Biological target: T1, rh beta tryptase (Homo sapiens, UniProt Q15661)
T1 construct: purchased Promega
Experiment: tryptase inhibition test (cleavage of N-p-tosyl-Gly-Pro-Lys-para-nitroaniline, p-nitroaniline measured at 405 nm)
Assay type: biochemical
Conditions: Tris HCl buffer pH 7.4 with calcium and heparin; substrate 0.6 mM; 5 min pre-incubation, 5 min incubation, 37° C.
Description: The compounds according to the invention are characterised by their tryptase-inhibiting activity. This ability to inhibit tryptase was investigated using the test described below.
The measurement is carried out in Tris HCl buffer (100 mM), which additionally contains calcium (5 mM) and heparin (100 mg/ml), at pH 7.4. The standard used is rh beta tryptase which may be obtained commercially from Promega, for example. The substrate used is N-p-tosyl—Gly-Pro-Lys-para-nitroaniline in a concentration of 0.6 mM. The substrate is digested with tryptase to form p-nitroaniline which can be measured at 405 nm. Usually, an incubation period of 5 minutes and an incubation temperature of 37° C. are chosen. The enzyme activity used is 0.91 U/ml. The measurements are carried out in an Autoanalyser (Cobas Bio) made by Hofmann LaRoche. The potential inhibitory substances are used in concentrations of 10 μM in the screening, the inhibition of the tryptase being given in percent. The IC50 (concentration at which 50% of the enzyme activity is inhibited) is determined at over 70% inhibition. After 5 minutes' pre-incubation of the potential inhibitory substances, the substrate is added to start the reaction, the formation of p-nitroaniline being taken as a measurement of the enzyme activity after 5 minutes, after testing the linearity.

T1 sequence (Q15661 31-275): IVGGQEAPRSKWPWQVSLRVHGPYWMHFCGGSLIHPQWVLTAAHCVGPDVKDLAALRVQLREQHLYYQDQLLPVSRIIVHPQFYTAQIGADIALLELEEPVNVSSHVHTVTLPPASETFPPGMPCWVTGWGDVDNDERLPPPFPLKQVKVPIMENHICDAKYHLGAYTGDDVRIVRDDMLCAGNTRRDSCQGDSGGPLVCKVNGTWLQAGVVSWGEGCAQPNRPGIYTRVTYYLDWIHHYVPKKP

IC50 | SMILES
4.3 nM | NCc1ccc(OCc2cccc(CNCCCCCNCc3cccc(COc4ccc(CN)cc4)c3)c2)cc1 [Example 7]
35 nM | NCc1ccc(OCc2cccc(CNCCc3cccc(NCc4cccc(COc5ccc(CN)cc5)c4)c3)c2)cc1 [Example 10]
4 nM | NCc1ccc(OCc2cccc(CNCC3CCC(CNCc4cccc(COc5ccc(CN)cc5)c4)CC3)c2)cc1 (centres unmarked) [Example 11]
13 nM | CC(C)(CCC(C)(C)NCc1cccc(COc2ccc(CN)cc2)c1)NCc1cccc(COc2ccc(CN)cc2)c1 [Example 14]
23 nM | NCc1ccc(OCc2cccc(CNCc3cccc(CNCc4cccc(COc5ccc(CN)cc5)c4)c3)c2)cc1 [Example 15]
12 nM | NCc1ccc(OCc2cccc(CNCc3ccc(CNCc4cccc(COc5ccc(CN)cc5)c4)cc3)c2)cc1 [Example 16]
1.4 nM | N=C(N)c1ccc(OCc2cccc(CNCCCCCNCc3cccc(COc4ccc(C(=N)N)cc4)c3)c2)cc1 [Example 17]
10.7 nM | CC1(NCc2cccc(COc3ccc(CN)cc3)c2)CCC(C(C)(C)NCc2cccc(COc3ccc(CN)cc3)c2)CC1 (centres unmarked) [Example 18]
10 nM | NCc1ccc(OCc2cccc(CNC3CCC(CC4CCC(NCc5cccc(COc6ccc(CN)cc6)c5)CC4)CC3)c2)cc1 (centres unmarked) [Example 19]
7.1 nM | NCc1ccc(OCc2cccc(CNCC3CCCC(CNCc4cccc(COc5ccc(CN)cc5)c4)C3)c2)cc1 (centres unmarked) [Example 20]
1.1 nM | N=C(N)c1ccc(OCc2cccc(CNCCCCCCCNCc3cccc(COc4ccc(C(=N)N)cc4)c3)c2)cc1 [Example 23]
3.1 nM | CN(CCCCCCN(C)Cc1cccc(COc2ccc(C(=N)N)cc2)c1)Cc1cccc(COc2ccc(C(=N)N)cc2)c1 [Example 24]
1.2 nM | N=C(N)c1ccc(OCc2cccc(CNCCCCCCNCc3cccc(COc4ccc(C(=N)N)cc4)c3)c2)cc1 [Example 25]
0.8 nM | N=C(N)c1ccc(OCc2cccc(CNCC3CCC(CNCc4cccc(COc5ccc(C(=N)N)cc5)c4)CC3)c2)cc1 (centres unmarked) [Example 26]
1.7 nM | CC(C)(CCC(C)(C)NCc1cccc(COc2ccc(C(=N)N)cc2)c1)NCc1cccc(COc2ccc(C(=N)N)cc2)c1 [Example 27]
5.3 nM | N=C(N)c1ccc(OCc2cccc(CNCc3cccc(CNCc4cccc(COc5ccc(C(=N)N)cc5)c4)c3)c2)cc1 [Example 28]

IC50 | SMILES
1.7 nM | N=C(N)c1ccc(OCc2cccc(CNCc3ccc(CNCc4cccc(COc5ccc(C(=N)N)cc5)c4)cc3)c2)cc1 [Example 29]
6.8 nM | CCCCN(CCCCCCN(CCCC)Cc1cccc(COc2ccc(C(=N)N)cc2)c1)Cc1cccc(COc2ccc(C(=N)N)cc2)c1 [Example 30]
13 nM | CN(CCCCCCN(C)Cc1cccc(COc2ccc(CN)cc2)c1)Cc1cccc(COc2ccc(CN)cc2)c1 [Example 31]
32.4 nM | N=C(N)c1ccc(OCc2cccc(CNCCCCC(NCc3cccc(COc4ccc(C(=N)N)cc4)c3)C(=O)O)c2)cc1 (centres unmarked) [Example 32]
2.5 nM | CC(C)(CCCCC(C)(C)NCc1cccc(COc2ccc(C(=N)N)cc2)c1)NCc1cccc(COc2ccc(C(=N)N)cc2)c1 [Example 33]
0.8 nM | N=C(N)c1ccc(OCc2cccc(CN3CCC(C4CCN(Cc5cccc(COc6ccc(C(=N)N)cc6)c5)CC4)CC3)c2)cc1 [Example 34]
31.6 nM | CN(Cc1ccc(CN(C)Cc2cccc(COc3ccc(CCN)cc3)c2)cc1)Cc1cccc(COc2ccc(CCN)cc2)c1 [Example 35]
12 nM | N=C(N)c1ccc(OCc2cccc(CNCCOCCNCc3cccc(COc4ccc(C(=N)N)cc4)c3)c2)cc1 [Example 39]
5 nM | CC1(NCc2cccc(COc3ccc(C(=N)N)cc3)c2)CCC(C(C)(C)NCc2cccc(COc3ccc(C(=N)N)cc3)c2)CC1 (centres unmarked) [Example 40]
30.9 nM | NCCc1ccc(OCc2cccc(CN3CCC(C4CCN(Cc5cccc(COc6ccc(CCN)cc6)c5)CC4)CC3)c2)cc1 [Example 42]
19 nM | N=C(N)c1ccc(OCc2cccc(COCc3ccc(COCc4cccc(COc5ccc(C(=N)N)cc5)c4)cc3)c2)cc1 [Example 56]
41 nM | N=C(N)c1ccc(OCc2cccc(CN(Cc3ccc(CN(Cc4cccc(COc5ccc(C(=N)N)cc5)c4)C4CC4)cc3)C3CC3)c2)cc1 [Example 62]
0.74 nM | N=C(N)c1ccc(OCc2ccc(CNCCCCCCNCc3ccc(COc4ccc(C(=N)N)cc4)cc3)cc2)cc1 [Example 63]
1.1 nM | N=C(N)c1ccc(OCc2ccc(CN3CCC(C4CCN(Cc5ccc(COc6ccc(C(=N)N)cc6)cc5)CC4)CC3)cc2)cc1 [Example 64]
0.59 nM | N=C(N)c1ccc(OCc2ccc(CNCc3ccc(CNCc4ccc(COc5ccc(C(=N)N)cc5)cc4)cc3)cc2)cc1 [Example 65]
2.5 nM | NCc1ccc(OCc2cccc(CN3CCC(C4CCN(Cc5cccc(COc6ccc(CN)cc6)c5)CC4)CC3)c2)cc1 [Example 68]

— patent US6780863B1, “Bis-basic compounds with tryptase-inhibitory activity” (Boehringer Ingelheim Pharma GmbH & Co. KG, priority 1999, dated 2004)
